A short description of the series: RP, Waters ACQUITY UPLC BEH C18, 100 × 1 mm, 1.7 µm, -1 °C, 0.15 mL/min, estimated dead time 0.33 min; A: water + 0.1% formic acid; B: acetonitrile + 0.1% formic acid; gradient (min/%B) 0/5 8/25 14/70 20/95 23/95. As to conditions: stereoisomer not certain.

For `CSCCC(NC(C)=O)C(=O)O` (centres undefined), the LC retention time is 0.6 min.

For `CS(=O)CCC(N)C(=O)O` (centres undefined), the LC retention time was 0.6 min. `Cc1ncccc1C(N)=O`: the LC retention time was 0.7 min. As for `Cc1c[nH]c(=O)[nH]c1=O`, the LC retention time is 0.7 min.

For the molecule `CC(C)CC(=O)OC(CC(=O)[O-])C[N+](C)(C)C` (centres undefined), the LC retention time was 0.7 min.

Take `NC(CCO)C(=O)O` (centres undefined): the LC retention time is 0.9 min.

Consider `CC(=O)NC1C(OP(=O)(O)OP(=O)(O)OCC2OC(n3ccc(=O)[nH]c3=O)C(O)C2O)OC(CO)C(O)C1O` (centres undefined), for which the LC retention time was 0.7 min.

On to `C[S+](CCC(N)C(=O)O)CC1OC(n2cnc3c(N)ncnc32)C(O)C1O` (centres undefined), for which the LC retention time was 0.6 min.

For the molecule `CSCC1OC(n2cnc3c(N)ncnc32)C(O)C1O` (centres undefined), the LC retention time is 0.7 min.

On to `CC(=O)OC(CC(=O)[O-])C[N+](C)(C)C` (centres undefined), for which the LC retention time is 0.7 min. For the molecule `Nc1ccnc(=O)[nH]1`, the LC retention time is 4 min.

As to `NC(COP(=O)(O)O)C(=O)O` (centres undefined), the LC retention time was 0.6 min. In the case of `NC(=O)NCCCC(N)C(=O)O` (centres undefined), the LC retention time was 0.5 min. Regarding `C[N+](C)(C)CCOP(=O)(O)O`, the LC retention time is 0.7 min.

In the case of `NC(=O)c1cccnc1`, the LC retention time is 0.8 min. `C[N+](C)(C)CCO`: the LC retention time is 0.6 min. Consider `CC(C)(CO)C(O)C(=O)NCCC(=O)O` (centres undefined), for which the LC retention time is 0.7 min. Regarding `CC(C)CC(N)C(=O)O` (centres undefined), the LC retention time was 0.7 min. Turning to `CC(C)C(N)C(=O)O` (centres undefined), the LC retention time is 0.7 min.

Consider `CC(C(=O)O)C(O)(CC(=O)O)C(=O)O` (centres undefined), for which the LC retention time is 4.3 min. The figure for `CCC(=O)OC(CC(=O)[O-])C[N+](C)(C)C` (centres undefined) is 0.6 min; for `C[N+](C)(C)CC(O)CC(=O)[O-]` (centres undefined) it is 0.7 min.

Take `CC(=O)NC(CCC(N)=O)C(=O)O` (centres undefined): the LC retention time is 0.6 min. Turning to `CNCC(=O)O`, the LC retention time was 0.7 min. On to `CC(N)C(=O)O` (centres undefined), for which the LC retention time was 0.7 min. Consider `Cc1cn(C2CC(O)C(COP(=O)(O)O)O2)c(=O)[nH]c1=O` (centres undefined), for which the LC retention time was 1.2 min. Take `CC(=O)NC(CCC(=O)O)C(=O)O` (centres undefined): the LC retention time was 0.6 min. On to `NC(=O)CCC(N)C(=O)O` (centres undefined), for which the LC retention time is 0.8 min.

Regarding `NC(Cc1c[nH]c2ccccc12)C(=O)O` (centres undefined), the LC retention time is 1.2 min. In the case of `NC(=NCCCC(N)C(=O)O)NC(CC(=O)O)C(=O)O` (centres undefined), the LC retention time is 0.6 min. `Nc1ccccc1C(=O)CC(N)C(=O)O` (centres undefined): the LC retention time was 0.9 min. On to `CCCC(=O)OC(CC(=O)[O-])C[N+](C)(C)C` (centres undefined), for which the LC retention time is 0.6 min.

On to `NC(CCC(=O)NC(CS)C(=O)NCC(=O)O)C(=O)O` (centres undefined), for which the LC retention time was 3 min. As to `Cc1cn(C2CC(O)C(CO)O2)c(=O)[nH]c1=O` (centres undefined), the LC retention time was 0.7 min.

The values are drawn from the RepoRT retention time repository (doi:10.1021/acs.analchem.9b05135).
